# Measurements reported in patent US4499087A, “7-Phenyl-7-phenoxymethyl-hexahydro-1,4-oxazepines and their use” (BASF Aktiengesellschaft, priority 1982, dated 1985).
# Structures can show the parent of a compound that is named as a salt.
# Legend:
# norepinephrine uptake = test: Inhibition of norepinephrine uptake in rat brain synaptosomes (hippocampus, 3H norepinephrine); format: biochemical; conditions: for IC50: rat hippocampus synaptosomes, 3H norepinephrine about 10 nM, 37° C., read-out: Norepinephrine IC50 (inhibition of neurotransmitter uptake in synaptosomes); for inhibition of norepinephrine and serotonin uptake (in words): synaptosomes, both transmitters
# Experimental: (§1) The action mechanism of a group of therapeutically much used antidepressants must be regarded as being the inhibition of the neuronal uptake of transmitter substances (norepinephrine and/or serotonin). These properties were utilized in biological test models for characterizing potential antidepressants (inhibition of neurotransmitter uptake in rat brain synaptosomes):
# (§2) Hippocampus and cortex from rat brain were prepared, and were homogenized in 0.32M sucrose solution. By means of differential centrifuging, synaptosomes were obtained, and these were suspended in buffer solution. The synaptosomes are able actively to take up added neurotransmitter substances (eg. norepinephrine or serotonine) from the surrounding medium. It is possible to antagonize this process by uptake inhibitors, as a function of concentration. Various concentrations of the test substances were added to the synaptosomes, and the mixtures were then incubated with ^3 H norepinephrine (hippocampus) or ^3 H serotonin (cortex) at 37° C. The substrate concentration was about 10 nM. The uptake was terminated by diluting the mixture with ice-cooled buffer solution, after which the synaptosomes were separated off by centrifuging and the ^3 H activity in the sediment was measured. A blank value was determined by incubation at 0° C.
# (§3) From the inhibitory values determined for various inhibitor concentrations compared with the control, the mean inhibitory concentration (IC50) was calculated by linear regression following logit-log transformation.
# serotonin uptake = test: Inhibition of serotonin uptake in rat brain synaptosomes (cortex, 3H serotonin); format: biochemical; conditions: 3H serotonin about 10 nM, 37° C., read-out: Serotonin IC50 (inhibition of neurotransmitter uptake in synaptosomes)
# Experimental: as §1, §2, §3
compound,measurement,setting,value
"c1ccc(OCC2(c3ccccc3)CCNCCO2)cc1 (stereo not drawn) [Example 1, 7-phenyl-7-phenoxymethyl-hexahydro-1,4-oxazepine hydrochloride]",IC50,norepinephrine uptake,0.015 µM
same,IC50,serotonin uptake,0.19 µM
"Clc1ccccc1OCC1(c2ccccc2)CCNCCO1 (stereo not drawn) [Example 2, 7-phenyl-7-(2-chlorophenoxymethyl)-hexahydro-1,4-oxazepine hydrochloride]",IC50,norepinephrine uptake,0.0028 µM
same,IC50,serotonin uptake,0.46 µM
"COc1ccccc1OCC1(c2ccccc2)CCNCCO1 (stereo not drawn) [Example 3, 7-phenyl-7-(2-methoxyphenoxymethyl)-hexahydro-1,4-oxazepine hydrochloride]",IC50,norepinephrine uptake,0.0059 µM
same,IC50,serotonin uptake,0.19 µM
"Clc1ccc(OCC2(c3ccccc3)CCNCCO2)cc1 (stereo not drawn) [Example 4, 7-phenyl-7-(4-chlorophenoxymethyl)-hexahydro-1,4-oxazepine]",IC50,norepinephrine uptake,0.074 µM
same,inhibition of norepinephrine and serotonin uptake (in words),norepinephrine uptake,inhibit the uptake of both transmitters at an equally low concentration
same,IC50,serotonin uptake,0.039 µM
"COc1ccc(OCC2(c3ccccc3)CCNCCO2)cc1.Cl (stereo not drawn) [Example 5, 7-phenyl-7-(4-methoxyphenoxymethyl)-hexahydro-1,4-oxazepine hydrochloride]",IC50,norepinephrine uptake,0.086 µM
same,inhibition of norepinephrine and serotonin uptake (in words),norepinephrine uptake,inhibit the uptake of both transmitters at an equally low concentration
same,IC50,serotonin uptake,0.1 µM
CN1CCOC(COc2ccccc2Cl)(c2ccccc2)CC1 (stereo not drawn) [Example 7],IC50,norepinephrine uptake,0.098 µM
same,inhibition of norepinephrine and serotonin uptake (in words),norepinephrine uptake,inhibit the uptake of both transmitters at an equally low concentration
same,IC50,serotonin uptake,0.3 µM
"CN(C)CCCN1c2ccccc2CCc2ccccc21 [Imipramine, reference compound]",IC50,norepinephrine uptake,0.014 µM
same,inhibition of norepinephrine and serotonin uptake (in words),norepinephrine uptake,inhibits both norepinephrine uptake and serotonin uptake at low concentration
same,IC50,serotonin uptake,0.13 µM
